Data: article PMC6627486, “Ipomoeassin F Binds Sec61α to Inhibit Protein Translocation” (Journal of the American Chemical Society, 2019)
Where two headings read alike, the source gives them in different places.

Legend:
Sec61α = experiment: Competition with CT7 photo-affinity labeling of Sec61α in sheep rough microsomes; format: binding; settings: 10 μM compound, 100 nM CT7, sheep rough microsomes
Procedure: MDA-MB-231 cells were seeded on fibronectin-coated coverslips at 70% confluency in a 48-well plate and cultured at 37 °C and 5% CO2. After 24 h, culture medium was replaced with fresh medium containing a 20 µM competitor or an equal volume of DMSO vehicle for 30 min at 37 °C and 5% CO2, followed by addition of 0.2 µM (final concentration) fluorescent probe 12. After 1 h incubation at 37 °C and 5% CO2, the coverslips were mounted onto a glass slide with a mounting medium with or without 0.5 µg/ml DAPI.
The fluorescent images were acquired with a confocal microscope (Leica TCS SP5) using 405 nm excitation and 562 nm excitation. For the ER co-localization studies, 1 uM ER-Tracker™ Blue-White DPX was added to the medium after 1 h incubation with probe 12. After 5 min incubation, the coverslips were mounted onto a glass slide and the images were acquired as described above.
CT7 photo-affinity labeling and click chemistry were done as previously described.14 Briefly, SRMs (sheep rough microsomes, isolated as described in reference15) containing 100 nM Sec61 were treated with 10 µM ipomoeassin F/mycolactone or 1% DMSO for 30 min at 0°C, followed by incubation with 100 nM CT7 for 10 min RT. Samples were then photolyzed for 10 min and crosslinked proteins were detected by click chemistry, SDS-PAGE, and in-gel fluorescent scanning (Typhoon Trio, GE Healthcare). […]

HCT D60G = experiment: Alamar Blue viability, HCT116 Sec61α D60G (96 h); format: cell-based, human
Procedure: (§1) AlamarBlue Cytotoxicity Assay
MDA-MB-231, MCF-10A and HCT116. Viable cells were counted with a hemocytometer immediately before each experiment . Experiments were done in triplicate. First, 100 μL of MDA-MB-231 cells or MCF-10A cells at the density of 50,000 cells/mL was seeded in a 96-well plate (5,000 cells/well) and then incubated at 37 °C and 5% CO2 for 24 h. The compounds were dissolved in DMSO (dimethyl sulfoxide) to make drug stocks (10 mM). The stock solutions were diluted with the complete DMEM high glucose culture medium to make a series of gradient fresh working solutions right before each test. Subsequently, the cells were treated with 100 μL of the freshly made gradient working solution in a total volume of 200 μL/well for 72 h. After that, the media were discarded and 200 μL of the fresh complete medium containing 10% of AlamarBlue (resazurin) stock solution was added to each well. The plate was then incubated at 37 °C and 5% CO2 for another 3 h. Emission of each well at 620 nm was detected by a microplate reader (BioTek Synergy H1) at excitation 580 nm. For HCT116 WT and mutant lines, cells were seeded at 1000 cells/ well in complete McCoys medium. […] Cells were treated for 96 h, then viability measured with AlamarBlue, detected using the conditions described but with a BMG Fluostar Optima Microplate Reader. […]
(§2) was determined. […]

[1] = tested on: TNF production by RAW264.7 cells; experiment: TNF production washout assay in LPS-stimulated RAW264.7 cells; format: cell-based; settings: 250 nM ipomoeassin F, 125 ng/mL mycolactone; for TNF production after 24 h washout: 1 h incubation, washed, 24 h recovery, then LPS 4 h; for TNF production, direct assay: 1 h preincubation, then 100 ng/mL LPS 4 h
Procedure: The reversibility of the inhibition of secreted protein production by ipomoeassin F was determined by following the production of TNF in RAW264.7 cells as described before.22 Briefly, RAW264.7 cells were maintained at 37 °C and 5% CO2 in high glucose DMEM (Merck), supplemented with 10% heat-inactivated FBS (GIBCO). Cells were plated into 24 well plates at a concentration of 1 x 10^5/ml 24 hour prior to assay, then incubated for 1 hour in the presence or absence of 125 ng/ml mycolactone, 250 nM Ipomoeassin F or DMSO carrier. Cells were either stimulated directly with 100 ng/ml TLR-grade LPS (Enzo) or washed 3 times with medium and incubated 24 hour, then stimulated with LPS. In each case, cells were incubated with LPS for 4 hour then the supernatants were removed. The concentration of TNF in supernatants was quantified by ELISA (eBioscience).

[2] = AlamarBlue cytotoxicity assay, MCF-10A; format: cell-based, human; settings: human
Procedure: as §1
MDA-MB-231, MCF-10A and HCT116. Viable cells were counted with a hemocytometer immediately before each experiment . Experiments were done in triplicate. First, 100 μL of MDA-MB-231 cells or MCF-10A cells at the density of 50,000 cells/mL was seeded in a 96-well plate (5,000 cells/well) and then incubated at 37 °C and 5% CO2 for 24 h. The compounds were dissolved in DMSO (dimethyl sulfoxide) to make drug stocks (10 mM). The stock solutions were diluted with the complete DMEM high glucose culture medium to make a series of gradient fresh working solutions right before each test. Subsequently, the cells were treated with 100 μL of the freshly made gradient working solution in a total volume of 200 μL/well for 72 h. After that, the media were discarded and 200 μL of the fresh complete medium containing 10% of AlamarBlue (resazurin) stock solution was added to each well. The plate was then incubated at 37 °C and 5% CO2 for another 3 h. Emission of each well at 620 nm was detected by a microplate reader (BioTek Synergy H1) at excitation 580 nm. […]
Microplate Reader. The percentage of viability compared to the negative control (DMSO-treated cells) […]
as §2

| Structure (SMILES) | competition with CT7 photo-cross-linking to Sec61α (Sec61α) | IC50 (HCT D60G; read-out: cell viability IC50) | TNF production after 24 h washout [1] | TNF production, direct assay [1] | IC50 at 72 h [2] | IC50 (HCT D60G; Homo sapiens, HCT-116, read-out: cell viability IC50) | IC50 ([2]; 72 h) |
| --- | --- | --- | --- | --- | --- | --- | --- |
| CC(=C\C=C\C(C)=C\[C@H](O)[C@@H](O)C[C@H](C)O)/C=C(C)/C=C/C(=O)O[C@H]1CCCC(=O)O[C@@H]([C@@H](C)C/C(C)=C/[C@@H](C)[C@H](O)C[C@@H](C)O)C/C=C(\C)C[C@@H]1C [mycolactone, reference compound] | efficiently competes with CT7 | > 330 nM | not to be restored | completely block TNF production | – | – | – |
| C/C=C(\C)C(=O)O[C@@H]1[C@@H](O)[C@@H]2O[C@H]3[C@H](O[C@@H](CCCCC)CCCCCCC(=O)CCC(=O)OC[C@@H](O2)[C@H]1OC(=O)/C=C/c1ccccc1)O[C@H](C)[C@H](OC(C)=O)[C@@H]3O [ipomoeassin F] | similarly potent competition | – | restored, albeit at a reduced level | similarly blocked TNF production | 5.3 nM | 88.1 ± 10.3 nM | – |
| C/C=C(\C)C(=O)O[C@H]1[C@H](OC(=O)/C=C/c2ccc(OCc3cn(CCOCCOCCOCCNC(=O)CCCC[C@@H]4SC[C@@H]5NC(=O)N[C@@H]54)nn3)cc2)[C@@H](O)[C@@H]2O[C@H]3[C@H](O[C@@H](CCCCC)CCCCCCC(=O)CCC(=O)OC[C@H]1O2)O[C@H](C)[C@H](OC(C)=O)[C@@H]3O [compound 5] | – | – | – | – | – | – | 21.7 nM |
